Laboratory results as given in patent publication US10131652B2, “Pyrimidinyloxy benzene derivatives as herbicides” (E. I. DU PONT DE NEMOURS AND COMPANY, priority 2014, dated 2018).
Where two headings read alike, the source gives them in different places.

Columns and labels:
Test in all cases: Test D pre-/postemergence plant response
Type in all cases: in vivo
corn (Zea mays) = conditions: Zea mays; for Corn plant response rating (crop injury, 0 = no effect, 100 = complete kill) at 62 g/ha: 62 g ai/ha
Excerpt: (§1) Seeds of plant species selected from blackgrass (Alopecurus myosuroides), Italian ryegrass (Lolium multiflorum), winter wheat (Triticum aestivum), galium (catchweed bedstraw, Galium aparine), corn (Zea mays), large (Lg) crabgrass (Digitaria sanguinalis), giant foxtail (Setaria faberii), johnsongrass (Sorghum halepense), lambsquarters (Chenopodium album), morningglory (Ipomoea coccinea), yellow nutsedge (Cyperus esculentus), pigweed (Amaranthus retroflexus), ragweed (common ragweed, Ambrosia elatior), soybean (Glycine max), bamyardgrass (Echinochloa crus-galli), oilseed rape (Brassica napus), waterhemp (common waterhemp, Amaranthus rudis), and velvetleaf (Abutilon theophrasti) were planted into a blend of loam soil and sand and treated preemergence with test chemicals formulated in a non-phytotoxic solvent mixture which included a surfactant. At the same time, plants selected from these crop and weed species and also kochia (Kochia scoparia), wild oat (Avena fatua), and chickweed (common chickweed, Stellaria media) were planted in pots containing Redi-Earth® planting medium (Scotts Company, 14111 Scottslawn Road, Marysville, Ohio 43041) comprising spaghnum peat moss, vermiculite, wetting agent and starter nutrients and treated with postemergence applications of test chemicals formulated in the same manner. Plants ranged in height from 2 to 18 cm (1- to 4-leaf stage) for postemergence treatments. Treated plants and controls were maintained in a greenhouse for 13 to 15 days, after which time all species were compared to controls and visually evaluated. Plant response ratings, summarized in Table D, are based on a scale of 0 to 100 where 0 is no effect and 100 is complete control. A dash (-) response means no test result.

[1] = system: large (Lg) crabgrass (Digitaria sanguinalis); conditions: Digitaria sanguinalis; for pest or weed control at 16 g/ha: 16 g ai/ha; for pest or weed control at 31 g/ha: 31 g ai/ha; for pest or weed control at 62 g/ha: 62 g ai/ha; for pest or weed control at 125 g/ha: 125 g ai/ha
Excerpt: as §1

[2] = system: yellow nutsedge (Cyperus esculentus); conditions: Cyperus; for pest or weed control at 16 g/ha: 16 g ai/ha; for pest or weed control at 31 g/ha: 31 g ai/ha; for pest or weed control at 62 g/ha: 62 g ai/ha; for pest or weed control at 125 g/ha: 125 g ai/ha
Excerpt: as §1

[3] = system: waterhemp (common waterhemp, Amaranthus rudis); conditions: Amaranthus tuberculatus; for pest or weed control at 16 g/ha: 16 g ai/ha; for pest or weed control at 31 g/ha: 31 g ai/ha; for pest or weed control at 62 g/ha: 62 g ai/ha; for pest or weed control at 125 g/ha: 125 g ai/ha
Excerpt: as §1

[4] = system: velvetleaf (Abutilon theophrasti); conditions: Abutilon theophrasti; for pest or weed control at 16 g/ha: 16 g ai/ha; for pest or weed control at 31 g/ha: 31 g ai/ha; for pest or weed control at 62 g/ha: 62 g ai/ha; for pest or weed control at 125 g/ha: 125 g ai/ha
Excerpt: as §1

[5] = system: morningglory (Ipomoea coccinea); conditions: Ipomoea; for pest or weed control at 16 g/ha: 16 g ai/ha; for pest or weed control at 31 g/ha: 31 g ai/ha; for pest or weed control at 62 g/ha: 62 g ai/ha; for pest or weed control at 125 g/ha: 125 g ai/ha
Excerpt: as §1

[6] = system: lambsquarters (Chenopodium album); conditions: Chenopodium album; for pest or weed control at 16 g/ha: 16 g ai/ha; for pest or weed control at 31 g/ha: 31 g ai/ha; for pest or weed control at 62 g/ha: 62 g ai/ha; for pest or weed control at 125 g/ha: 125 g ai/ha
Excerpt: as §1

[7] = system: galium (catchweed bedstraw, Galium aparine); conditions: Galium; for pest or weed control at 16 g/ha: 16 g ai/ha; for pest or weed control at 31 g/ha: 31 g ai/ha; for pest or weed control at 62 g/ha: 62 g ai/ha; for pest or weed control at 125 g/ha: 125 g ai/ha
Excerpt: as §1

[8] = system: Italian ryegrass (Lolium multiflorum); conditions: Lolium multiflorum; for pest or weed control at 16 g/ha: 16 g ai/ha; for pest or weed control at 31 g/ha: 31 g ai/ha; for pest or weed control at 62 g/ha: 62 g ai/ha; for pest or weed control at 125 g/ha: 125 g ai/ha
Excerpt: as §1

[9] = post-emergence, Postemergence, scale 0 to 100 (0 no effect, 100 complete control), read-out: Crabgrass, Large plant response rating
[10] = post-emergence, Postemergence, scale 0 to 100, 0 no effect, 100 complete control, read-out: Plant response rating, Crabgrass, Large
[11] = pre-emergence, Preemergence, scale 0 to 100 (0 no effect, 100 complete control), read-out: Plant response rating, Crabgrass, Large
[12] = post-emergence, Postemergence, scale 0 to 100 (0 no effect, 100 complete control), read-out: Nutsedge, Yellow plant response rating
[13] = post-emergence, Postemergence, scale 0 to 100, 0 no effect, 100 complete control, read-out: Plant response rating, Nutsedge, Yellow
[14] = pre-emergence, Preemergence, scale 0 to 100 (0 no effect, 100 complete control), read-out: Plant response rating, Nutsedge, Yellow
[15] = post-emergence, Postemergence, scale 0 to 100 (0 no effect, 100 complete control), read-out: Waterhemp plant response rating
[16] = post-emergence, Postemergence, scale 0 to 100, 0 no effect, 100 complete control, read-out: Plant response rating, Waterhemp
[17] = pre-emergence, Preemergence, scale 0 to 100 (0 no effect, 100 complete control), read-out: Plant response rating, Waterhemp
[18] = post-emergence, Postemergence, scale 0 to 100 (0 no effect, 100 complete control), read-out: Velvetleaf plant response rating
[19] = post-emergence, Postemergence, scale 0 to 100, 0 no effect, 100 complete control, read-out: Plant response rating, Velvetleaf
[20] = pre-emergence, Preemergence, scale 0 to 100 (0 no effect, 100 complete control), read-out: Plant response rating, Velvetleaf
[21] = post-emergence, Postemergence, scale 0 to 100 (0 no effect, 100 complete control), read-out: Morningglory plant response rating
[22] = post-emergence, Postemergence, scale 0 to 100, 0 no effect, 100 complete control, read-out: Plant response rating, Morningglory
[23] = pre-emergence, Preemergence, scale 0 to 100 (0 no effect, 100 complete control), read-out: Plant response rating, Morningglory
[24] = post-emergence, Postemergence, scale 0 to 100 (0 no effect, 100 complete control), read-out: Lambsquarters plant response rating
[25] = post-emergence, Postemergence, scale 0 to 100, 0 no effect, 100 complete control, read-out: Plant response rating, Lambsquarters
[26] = pre-emergence, Preemergence, scale 0 to 100 (0 no effect, 100 complete control), read-out: Plant response rating, Lambsquarters
[27] = post-emergence, Postemergence, scale 0 to 100 (0 no effect, 100 complete control), read-out: Galium plant response rating
[28] = post-emergence, Postemergence, scale 0 to 100, 0 no effect, 100 complete control, read-out: Plant response rating, Galium
[29] = pre-emergence, Preemergence, scale 0 to 100 (0 no effect, 100 complete control), read-out: Plant response rating, Galium
[30] = post-emergence, Postemergence, scale 0 to 100 (0 no effect, 100 complete control), read-out: Ryegrass, Italian plant response rating
[31] = post-emergence, Postemergence, scale 0 to 100, 0 no effect, 100 complete control, read-out: Plant response rating, Ryegrass, Italian
[32] = pre-emergence, Preemergence, scale 0 to 100 (0 no effect, 100 complete control), read-out: Plant response rating, Ryegrass, Italian

What does the source list for `FC(F)(F)c1cc(-c2ccccc2Oc2ncc(Cl)cn2)on1` [Compound 63, 5-chloro-2-[2-[3-(trifluoromethyl)-5-isoxazolyl]phenoxy]pyrimidine]?
plant injury at 16 g/ha (corn (Zea mays); post-emergence, Postemergence, 16 g ai/ha, scale 0 to 100 (0 no effect, 100 complete control), read-out: Corn plant response rating): 5%; plant injury at 31 g/ha (corn (Zea mays); post-emergence, Postemergence, 31 g ai/ha, scale 0 to 100 (0 no effect, 100 complete control), read-out: Corn plant response rating): 5%; Corn plant response rating (crop injury, 0 = no effect, 100 = complete kill) at 62 g/ha (corn (Zea mays); post-emergence, Postemergence, scale 0 to 100, 0 no effect, 100 complete control): 5%; Corn plant response rating (crop injury, 0 = no effect, 100 = complete kill) at 125 g/ha (corn (Zea mays); post-emergence, Postemergence, 125 g ai/ha, scale 0 to 100, 0 no effect, 100 complete control): 10%; plant injury at 125 g/ha (corn (Zea mays); pre-emergence, Preemergence, 125 g ai/ha, read-out: Plant response rating (scale 0 to 100), Corn): 15%; Corn plant response rating (crop injury, 0 = no effect, 100 = complete kill) at 16 g/ha (corn (Zea mays); pre-emergence, Preemergence, 16 g ai/ha, scale 0 to 100 (0 no effect, 100 complete control)): 0%; Corn plant response rating (crop injury, 0 = no effect, 100 = complete kill) at 31 g/ha (corn (Zea mays); pre-emergence, Preemergence, 31 g ai/ha, scale 0 to 100 (0 no effect, 100 complete control)): 5%; Corn plant response rating (crop injury, 0 = no effect, 100 = complete kill) at 62 g/ha (corn (Zea mays); pre-emergence, Preemergence, scale 0 to 100 (0 no effect, 100 complete control)): 15%; pest or weed control at 16 g/ha [1, 9]: 5%; pest or weed control at 31 g/ha [1, 9]: 5%; pest or weed control at 62 g/ha [1, 10]: 10%; pest or weed control at 125 g/ha [1, 10]: 35%; pest or weed control at 125 g/ha ([1]; pre-emergence, Preemergence, read-out: Plant response rating (scale 0 to 100), Crabgrass, Large): 100%; pest or weed control at 16 g/ha [1, 11]: 65%; pest or weed control at 31 g/ha [1, 11]: 98%; pest or weed control at 62 g/ha [1, 11]: 98%; pest or weed control at 16 g/ha [2, 12]: 0%; pest or weed control at 31 g/ha [2, 12]: 0%; pest or weed control at 62 g/ha [2, 13]: 5%; pest or weed control at 125 g/ha [2, 13]: 5%; pest or weed control at 125 g/ha ([2]; pre-emergence, Preemergence, read-out: Plant response rating (scale 0 to 100), Nutsedge, Yellow): 5%; pest or weed control at 16 g/ha [2, 14]: 0%; pest or weed control at 31 g/ha [2, 14]: 0%; pest or weed control at 62 g/ha [2, 14]: 0%; pest or weed control at 16 g/ha [3, 15]: 85%; pest or weed control at 31 g/ha [3, 15]: 85%; pest or weed control at 62 g/ha [3, 16]: 98%; pest or weed control at 125 g/ha [3, 16]: 98%; pest or weed control at 125 g/ha ([3]; pre-emergence, Preemergence, read-out: Plant response rating (scale 0 to 100), Waterhemp): 100%; pest or weed control at 16 g/ha [3, 17]: 90%; pest or weed control at 31 g/ha [3, 17]: 100%; pest or weed control at 62 g/ha [3, 17]: 100%; pest or weed control at 16 g/ha [4, 18]: 10%; pest or weed control at 31 g/ha [4, 18]: 25%; pest or weed control at 62 g/ha [4, 19]: 40%; pest or weed control at 125 g/ha [4, 19]: 40%; pest or weed control at 125 g/ha ([4]; pre-emergence, Preemergence, read-out: Plant response rating (scale 0 to 100), Velvetleaf): 100%; pest or weed control at 16 g/ha [4, 20]: 40%; pest or weed control at 31 g/ha [4, 20]: 100%; pest or weed control at 62 g/ha [4, 20]: 100%; pest or weed control at 16 g/ha [5, 21]: 50%; pest or weed control at 31 g/ha [5, 21]: 50%; pest or weed control at 62 g/ha [5, 22]: 98%; pest or weed control at 125 g/ha [5, 22]: 70%; pest or weed control at 125 g/ha ([5]; pre-emergence, Preemergence, read-out: Plant response rating (scale 0 to 100), Morningglory): 60%; pest or weed control at 16 g/ha [5, 23]: 0%; pest or weed control at 31 g/ha [5, 23]: 0%; pest or weed control at 62 g/ha [5, 23]: 25%; pest or weed control at 16 g/ha [6, 24]: 10%; pest or weed control at 31 g/ha [6, 24]: 70%; pest or weed control at 62 g/ha [6, 25]: 85%; pest or weed control at 125 g/ha [6, 25]: 90%; pest or weed control at 125 g/ha ([6]; pre-emergence, Preemergence, read-out: Plant response rating (scale 0 to 100), Lambsquarters): 95%; pest or weed control at 16 g/ha [6, 26]: 95%; pest or weed control at 31 g/ha [6, 26]: 90%; pest or weed control at 62 g/ha [6, 26]: 90%; pest or weed control at 16 g/ha [7, 27]: 60%; pest or weed control at 31 g/ha [7, 27]: 70%; pest or weed control at 62 g/ha [7, 28]: 70%; pest or weed control at 125 g/ha [7, 28]: 70%; pest or weed control at 125 g/ha ([7]; pre-emergence, Preemergence, read-out: Plant response rating (scale 0 to 100), Galium): 98%; pest or weed control at 16 g/ha [7, 29]: 75%; pest or weed control at 31 g/ha [7, 29]: 98%; pest or weed control at 62 g/ha [7, 29]: 98%; pest or weed control at 16 g/ha [8, 30]: 0%; pest or weed control at 31 g/ha [8, 30]: 0%; pest or weed control at 62 g/ha [8, 31]: 5%; pest or weed control at 125 g/ha [8, 31]: 30%; pest or weed control at 125 g/ha ([8]; pre-emergence, Preemergence, read-out: Plant response rating (scale 0 to 100), Ryegrass, Italian): 90%; pest or weed control at 16 g/ha [8, 32]: 0%; pest or weed control at 31 g/ha [8, 32]: 40%; pest or weed control at 62 g/ha [8, 32]: 80%
